Experiments:
Assay in all cases: Glasshouse herbicide test, pre- and post-emergence
Assay type in all cases: in vivo
[1] = tested on: Lolium perenne (LOLPE); details: 250 g/h, evaluated after 13 days, five-point scale; for percentage damage caused to the plant, LOLPE POST: post-emergence; for percentage damage caused to the plant, LOLPE PRE: pre-emergence
Description: (§1) Seeds of a variety of test species are sown in standard soil in pots (Lolium perenne (LOLPE), Setaria faberi (SETFA), Alopecurus myosuroides (ALOMY), Echinochloa crus-galli (ECHCG), Avena fatua (AVEFA)). After cultivation for one day (pre-emergence) or after 8 days cultivation (post-emergence) under controlled conditions in a glasshouse (at 24/16° C., day/night; 14 hours light; 65% humidity), the plants are sprayed with an aqueous spray solution derived from the formulation of the technical active ingredient in acetone/water (50:50) solution containing 0.5% Tween 20 (polyoxyethelyene sorbitan monolaurate, CAS RN 9005-64-5). Compounds are applied at 250 g/h. The test plants are then grown in a glasshouse under controlled conditions in a glasshouse (at 24/16° C., day/night; 14 hours light; 65% humidity) and watered twice daily. After 13 days for pre and post-emergence, the test is evaluated for the percentage damage caused to the plant. The biological activities are shown in the following table on a five-point scale (5=80-100%; 4=60-79%; 3=40-59%; 2=20-39%; 1=0-19%).

[2] = tested on: Alopecurus myosuroides (ALOMY); details: 250 g/h, evaluated after 13 days, five-point scale; for percentage damage caused to the plant, ALOMY POST: post-emergence; for percentage damage caused to the plant, ALOMY PRE: pre-emergence
Description: as §1

[3] = tested on: Echinochloa crus-galli (ECHCG); details: 250 g/h, evaluated after 13 days, five-point scale; for percentage damage caused to the plant, ECHCG POST: post-emergence; for percentage damage caused to the plant, ECHCG PRE: pre-emergence
Description: as §1

[4] = tested on: Setaria faberi (SETFA); details: 250 g/h, evaluated after 13 days, five-point scale; for percentage damage caused to the plant, SETFA POST: post-emergence; for percentage damage caused to the plant, SETFA PRE: pre-emergence
Description: as §1

[5] = tested on: Avena fatua (AVEFA); details: 250 g/h, evaluated after 13 days, five-point scale; for percentage damage caused to the plant, AVEFA POST: post-emergence; for percentage damage caused to the plant, AVEFA PRE: pre-emergence
Description: as §1

Structure (SMILES)	percentage damage caused to the plant, LOLPE POST [1]	percentage damage caused to the plant, LOLPE PRE [1]	percentage damage caused to the plant, ALOMY POST [2]	percentage damage caused to the plant, ALOMY PRE [2]	percentage damage caused to the plant, ECHCG POST [3]	percentage damage caused to the plant, ECHCG PRE [3]	percentage damage caused to the plant, SETFA POST [4]	percentage damage caused to the plant, SETFA PRE [4]	percentage damage caused to the plant, AVEFA POST [5]	percentage damage caused to the plant, AVEFA PRE [5]
CC#Cc1cc(C)c(C2C(=O)CC3(CCC(C(=O)N4CCOCC4)CC3)CC2=O)c(C)c1 (centres unmarked) [Compound 1.008]	5 (5=80-100%)	5 (5=80-100%)	5 (5=80-100%)	4 (4=60-79%)	5 (5=80-100%)	5 (5=80-100%)	4 (4=60-79%)	5 (5=80-100%)	5 (5=80-100%)	3 (3=40-59%)
CC#Cc1cc(C)c(C2C(=O)CC3(CCC(C(=O)N(C)CCO)CC3)CC2=O)c(C)c1 (centres unmarked) [Compound 1.009]	5 (5=80-100%)	5 (5=80-100%)	5 (5=80-100%)	4 (4=60-79%)	5 (5=80-100%)	4 (4=60-79%)	5 (5=80-100%)	3 (3=40-59%)	5 (5=80-100%)	3 (3=40-59%)
CC#Cc1cc(C)c(C2C(=O)CC3(CCC(C(=O)NOC)CC3)CC2=O)c(C)c1 (centres unmarked) [Compound 1.010]	5 (5=80-100%)	5 (5=80-100%)	4 (4=60-79%)	3 (3=40-59%)	5 (5=80-100%)	5 (5=80-100%)	5 (5=80-100%)	5 (5=80-100%)	5 (5=80-100%)	3 (3=40-59%)
CC#Cc1cc(C)c(C2C(=O)CC3(CCC(C(=O)NCCOC)CC3)CC2=O)c(C)c1 (centres unmarked) [Compound 1.011]	5 (5=80-100%)	5 (5=80-100%)	5 (5=80-100%)	5 (5=80-100%)	5 (5=80-100%)	5 (5=80-100%)	5 (5=80-100%)	5 (5=80-100%)	5 (5=80-100%)	5 (5=80-100%)
CC#Cc1cc(C)c(C2C(=O)CC3(CCC(C(=O)NCCO)CC3)CC2=O)c(C)c1 (centres unmarked) [Compound 1.012]	4 (4=60-79%)	4 (4=60-79%)	4 (4=60-79%)	4 (4=60-79%)	5 (5=80-100%)	4 (4=60-79%)	5 (5=80-100%)	4 (4=60-79%)	4 (4=60-79%)	4 (4=60-79%)
CC#Cc1cc(C)c(C2C(=O)CC3(CCC(C(=O)NC(C)(C)C)CC3)CC2=O)c(C)c1 (centres unmarked) [Compound 1.013]	5 (5=80-100%)	5 (5=80-100%)	5 (5=80-100%)	3 (3=40-59%)	5 (5=80-100%)	5 (5=80-100%)	5 (5=80-100%)	5 (5=80-100%)	4 (4=60-79%)	1 (1=0-19%)
CC#Cc1cc(C)c(C2C(=O)CC3(CCC(C(=O)NC(C)(C#N)CC)CC3)CC2=O)c(C)c1 (centres unmarked) [Compound 1.014]	5 (5=80-100%)	5 (5=80-100%)	5 (5=80-100%)	3 (3=40-59%)	5 (5=80-100%)	5 (5=80-100%)	5 (5=80-100%)	5 (5=80-100%)	5 (5=80-100%)	2 (2=20-39%)
CC#Cc1cc(C)c(C2C(=O)CC3(CCC(C(=O)NC)CC3)CC2=O)c(OC)c1 (centres unmarked) [Compound 1.016]	5 (5=80-100%)	5 (5=80-100%)	5 (5=80-100%)	5 (5=80-100%)	5 (5=80-100%)	5 (5=80-100%)	5 (5=80-100%)	5 (5=80-100%)	5 (5=80-100%)	5 (5=80-100%)
CC#Cc1cc(C)c(C2C(=O)CC3(CC2=O)CC(C(=O)NC)C3)c(C)c1 (centres unmarked) [Compound 1.017]	5 (5=80-100%)	5 (5=80-100%)	5 (5=80-100%)	5 (5=80-100%)	5 (5=80-100%)	5 (5=80-100%)	5 (5=80-100%)	5 (5=80-100%)	5 (5=80-100%)	5 (5=80-100%)
CC#Cc1cc(C)c(C2C(=O)CC3(CCC(C(=O)NC)C3)CC2=O)c(C)c1 (centres unmarked) [Compound 1.018]	5 (5=80-100%)	5 (5=80-100%)	5 (5=80-100%)	5 (5=80-100%)	5 (5=80-100%)	5 (5=80-100%)	5 (5=80-100%)	5 (5=80-100%)	5 (5=80-100%)	5 (5=80-100%)
CNC(=O)C1CCC2(CC1)CC(=O)C(c1c(C)cc(-c3ccc(C#N)cn3)cc1C)C(=O)C2 (centres unmarked) [Compound 1.020]	5 (5=80-100%)	5 (5=80-100%)	5 (5=80-100%)	5 (5=80-100%)	5 (5=80-100%)	5 (5=80-100%)	5 (5=80-100%)	5 (5=80-100%)	5 (5=80-100%)	5 (5=80-100%)
Cc1cc(-c2ccc(C#N)cn2)cc(C)c1C1C(=O)CC2(CCC(C(=O)N(C)C)CC2)CC1=O (centres unmarked) [Compound 1.021]	5 (5=80-100%)	4 (4=60-79%)	5 (5=80-100%)	4 (4=60-79%)	5 (5=80-100%)	5 (5=80-100%)	5 (5=80-100%)	4 (4=60-79%)	5 (5=80-100%)	2 (2=20-39%)
CNC(=O)C1CCC2(CC1)CC(=O)C(c1c(C)cc(-c3ccc(Cl)cn3)cc1C)C(=O)C2 (centres unmarked) [Compound 1.022]	5 (5=80-100%)	5 (5=80-100%)	5 (5=80-100%)	5 (5=80-100%)	5 (5=80-100%)	5 (5=80-100%)	5 (5=80-100%)	5 (5=80-100%)	5 (5=80-100%)	5 (5=80-100%)
CNC(=O)C1CCC2(CC1)CC(=O)C(c1c(C)cc(-c3ncc(F)cc3F)cc1C)C(=O)C2 (centres unmarked) [Compound 1.023]	5 (5=80-100%)	5 (5=80-100%)	5 (5=80-100%)	5 (5=80-100%)	5 (5=80-100%)	5 (5=80-100%)	5 (5=80-100%)	5 (5=80-100%)	5 (5=80-100%)	5 (5=80-100%)

Reference: patent publication US12319640B2, “Cyclic diones as herbicidal compounds” (SYNGENTA CROP PROTECTION AG, priority 2019, dated 2025)
